Source: article PMC8556085, “Antimicrobial and Antioxidant Secondary Metabolites from Trifolium baccarinii Chiov. (Fabaceae) and Their Mechanisms of Antibacterial Action” (BioMed Research International, 2021)
Marks after values point to notes of the source that are not given here.

What was measured:
[1] = test system: tested bacteria and yeasts; test: Broth microdilution MIC/MMC, summary over all strains; format: cell-based; settings: against specific microorganism; cutoff points of ref 33
How it was run: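 Twofold broth microdilution in MHB (bacteria) or SDB (yeasts), final range 2048–0.125 μg/mL. Inocula were 1 × 10^6 CFU/mL for bacteria, incubated at 37 °C for 24 h with shaking, and 1 × 10^5 spores/mL for yeasts (C. albicans 30 °C 48 h; C. neoformans 30 °C 72 h). MIC was the lowest concentration with no visible growth, in triplicate.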

[2] = test system: superoxide dismutase (SOD); test: Superoxide dismutase (SOD) activity in treated bacterial cell lysates; format: cell-based; settings: Staphylococcus aureus ATCC25923 and MRSA03, MIC and 1/2xMIC, 24 h
Description: (§1) (3) Antioxidant Enzyme Activities. For evaluation of catalase and superoxide dismutase (SOD) activities, Staphylococcus aureus ATCC25923 and MRSA03 (1.5 × 10^8 CFU/mL, 500 μL) cultures from the late exponential growth phase were treated with MIC and 1/2xMIC of the methanol extract (500 μL), compound 5 (500 μL), and oxacillin (500 μL) solutions and incubated at 37°C for 24 h. The suspension was centrifuged at 3000 rpm for 5 min to separate the supernatant. The pellet was washed twice with PBS and resuspended in 500 μL of cell lysate buffer (1 mM EDTA, 10 Mm Tris-HCl, 0.1% Triton-X-100, and 150 mM NaCl) and incubated at 37°C for 1 h. Contents were then centrifuged at 3000 rpm for 5 min, and the supernatant was collected for enzyme activity assays.
Superoxide dismutase (SOD) activity. This was determined using a kit (Sigma, catalogue no. 19160) in the cell lysate. […] The reaction mixture was incubated in the dark at 37°C for 20 min, and the absorbance was read at 450 nm on a BioTek Synergy 2 multiplate reader. The SOD activity was calculated based on the following formula: [(ABlank1–ABlank3) − (ASample–ABlank2)/(ABlank1–ABlank3) × 100], where Blank 1 contains ultrapure water, WST solution, and enzyme solution, Blank 2 contains sample solution, WST solution, and dilution buffer, and Blank 3 contains ultrapure water, WST solution, and dilution buffer.

[3] = DPPH free radical scavenging assay; settings: mean ± SD
Description: The free radical scavenging activity of extracts and compounds was evaluated according to the described method. The EC50 (μg/mL), which is the amount of sample necessary to inhibit by 50% the absorbance of free radical DPPH, was calculated. Vitamin C was used as a standard control. All the analyses were carried out in triplicate and repeated three times.

catalase = test: Catalase activity in treated bacterial cell lysates; format: cell-based; settings: Staphylococcus aureus ATCC25923 and MRSA03, MIC and 1/2xMIC, 24 h
Description: as §1
Catalase activity. This was assessed by using a kit (Sigma, catalogue no. CAT100) with a cell lysate. Briefly, 750 μL of assay buffer (50 mM) was mixed with 25 μL of 50 mM H2O2 and 10 μL of cell lysate. […] The absorbance was monitored at 520 nm, and the catalase activity was calculated based on the following equation: [Δμ moles (H2O2) × d × 100)/V × t], where Δμ moles (H2O2) is the difference in amount of H2O2 added to the reaction mixture between blank and given samples, d is the dilution of the original sample for catalase reaction, V is the sample volume in catalase reaction, and t is the reaction duration (min).

**Q.** With “4,7,2′-trihydroxy-4′-methoxyisoflavanol [compound 5]” as the substance, how does the “antimicrobial activity class of pure compounds by cutoff points” value [1] read?
**A.** significant/moderate

**Q.** What about the “SOD activity vs untreated cell lysates” value [2] of the same substance?
**A.** significant concentration-dependent decreases

**Q.** And the “DPPH free radical scavenging activity (EC50)” value [3]?
**A.** 11.58 ± 0.73^f μg/mL

**Q.** And the “catalase activity vs untreated cell lysates” value (catalase)?
**A.** significant concentration-dependent decreases
